# Results taken from ChEMBL document CHEMBL1201862, “PubChem BioAssay data set” (2004).
# Active and inactive are the calls of the source.
# Legend:
# Escherichia coli [1] = assay: microbe, parasite or virus in culture
# Escherichia coli [2] = assay: microbe, parasite or virus in culture; remark: listed apart in the source
# [3] = molecular target: Delta-type opioid receptor (Homo sapiens, UniProt P41143); assay: Counterscreen for agonists of heterodimerization of the mu 1 (OPRM1) and delta 1 (OPRD1) opioid receptors: Luminescence-based cell-based high throughput dose response assay to identify agonists of OPRD1 homodimerization. [Related pubchem assays (depositor defined):AID504326, AID504355, AID504692, AID504904, AID504905]; type: functional
# Delta-type opioid receptor, sequence (P41143 whole entry): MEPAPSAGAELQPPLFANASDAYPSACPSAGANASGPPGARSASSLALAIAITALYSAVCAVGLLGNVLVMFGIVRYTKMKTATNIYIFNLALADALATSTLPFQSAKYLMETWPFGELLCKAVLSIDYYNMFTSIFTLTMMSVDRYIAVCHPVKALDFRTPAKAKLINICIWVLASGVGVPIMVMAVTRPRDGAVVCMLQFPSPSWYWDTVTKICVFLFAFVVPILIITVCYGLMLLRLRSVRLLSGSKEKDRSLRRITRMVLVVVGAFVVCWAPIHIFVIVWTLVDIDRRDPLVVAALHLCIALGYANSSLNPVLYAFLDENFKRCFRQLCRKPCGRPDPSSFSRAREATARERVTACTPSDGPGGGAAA
# Mu-type opioid receptor = Mu-type opioid receptor (Homo sapiens, UniProt P35372); assay: Counterscreen for agonists of heterodimerization of the mu 1 (OPRM1) and delta 1 (OPRD1) opioid receptors: Luminescence-based cell-based high throughput dose response assay to identify agonists of OPRM1 homodimerization.; type: functional;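 note: U2OS cells expressing OPRM1 and beta-arrestin as split beta-galactosidase partners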
# [4] = molecular target: 5-hydroxytryptamine receptor 5A (Homo sapiens, UniProt P47898); assay: Counterscreen for agonists of OPRM1-OPRD1 heterodimerization: luminescence-based cell-based high throughput dose response assay to identify agonists of 5-hydroxytryptamine (serotonin) 5A receptor (HTR5A). [Related pubchem assays (depositor defined):AID504326, AID504355, AID504692, AID504904, AID504905]; type: functional
# 5-hydroxytryptamine receptor 5A, sequence (P47898 whole entry): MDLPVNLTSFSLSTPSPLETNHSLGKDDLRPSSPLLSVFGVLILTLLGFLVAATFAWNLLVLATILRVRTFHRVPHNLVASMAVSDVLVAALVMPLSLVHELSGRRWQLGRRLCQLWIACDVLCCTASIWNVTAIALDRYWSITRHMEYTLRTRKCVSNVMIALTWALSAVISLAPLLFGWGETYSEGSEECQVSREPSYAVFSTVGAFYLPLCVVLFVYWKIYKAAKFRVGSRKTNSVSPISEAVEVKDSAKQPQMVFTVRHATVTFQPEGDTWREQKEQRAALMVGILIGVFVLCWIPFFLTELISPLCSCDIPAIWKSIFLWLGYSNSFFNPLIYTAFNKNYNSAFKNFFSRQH
# Beta-galactosidase = Beta-galactosidase (Escherichia coli, UniProt Q8VNN2); assay: beta-galactosidase enzyme inhibitors and activators, dose response, artefact control for CCR6 antagonist project, biochemical, E. coli enzyme, set 3 (AID 504712); type: functional
# CHO = assay: cytotoxicity in TLR9-MyD88 CHO cells, dose response, cytotoxicity control for TLR9-MyD88 binding inhibitor project, cell-based, luminescence (AID 588339); type: functional, hamster; settings: Cricetulus griseus;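 note: CHO cells stably coexpressing TLR9 and MyD88 fusions from primary screen; compound exposure lasted 48 hours before viability readout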
# [5] = molecular target: Heat shock protein HSP 90-alpha (Homo sapiens, UniProt P07900); type: functional, organism-based
# Beta Lactamase [6] = molecular target: T1, Beta Lactamase (Pseudomonas aeruginosa, UniProt Q932Y6); assay: beta-lactamase reporter inhibitor potency, dose response, artefact control for TLR9-MyD88 binding inhibitor project, BLA reporter cells, FRET fluorescence (AID 588341); type: cell-based;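 note: cell based assay in CHO-K1 cells stably expressing beta-lactamase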
# T1 sequence (Q932Y6 whole entry): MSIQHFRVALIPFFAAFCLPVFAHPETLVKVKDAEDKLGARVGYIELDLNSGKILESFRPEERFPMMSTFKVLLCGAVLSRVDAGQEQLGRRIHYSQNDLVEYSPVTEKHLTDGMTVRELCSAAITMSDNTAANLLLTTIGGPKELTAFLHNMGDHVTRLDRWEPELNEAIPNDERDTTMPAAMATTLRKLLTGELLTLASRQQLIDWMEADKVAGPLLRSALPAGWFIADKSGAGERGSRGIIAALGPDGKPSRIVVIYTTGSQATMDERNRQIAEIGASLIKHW
# [7] = molecular target: T2, Polyadenylate-binding protein 1 (Homo sapiens, UniProt P11940); assay: PABP1 MLLE–PAM2 interaction inhibitors, dose response, miRNA deadenylation inhibitor project, biochemical, fluorescence polarization, Cy5-PAM2 peptide, secondary (AID 602260); type: functional; settings: read-out: IC50_Mean
# T2 sequence (P11940 whole entry): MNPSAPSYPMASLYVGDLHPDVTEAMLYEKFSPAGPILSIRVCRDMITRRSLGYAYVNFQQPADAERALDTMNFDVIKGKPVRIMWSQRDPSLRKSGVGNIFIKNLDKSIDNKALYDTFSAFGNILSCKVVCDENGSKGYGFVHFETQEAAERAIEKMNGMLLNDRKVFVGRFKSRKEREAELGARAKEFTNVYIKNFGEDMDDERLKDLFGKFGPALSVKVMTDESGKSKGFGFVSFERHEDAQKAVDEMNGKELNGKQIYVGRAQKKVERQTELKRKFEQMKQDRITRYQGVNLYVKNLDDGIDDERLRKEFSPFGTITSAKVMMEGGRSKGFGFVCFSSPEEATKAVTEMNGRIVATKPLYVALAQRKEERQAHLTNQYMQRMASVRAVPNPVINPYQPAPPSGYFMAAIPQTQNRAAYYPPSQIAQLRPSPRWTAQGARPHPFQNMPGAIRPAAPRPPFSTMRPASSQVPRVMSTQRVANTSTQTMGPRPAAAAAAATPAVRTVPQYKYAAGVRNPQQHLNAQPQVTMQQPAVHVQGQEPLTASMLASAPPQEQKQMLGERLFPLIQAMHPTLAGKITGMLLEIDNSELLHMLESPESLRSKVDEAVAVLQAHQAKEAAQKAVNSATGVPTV
# [8] = Shn3 3'UTR reporter inhibitors, dose response, cell-based, Clone20 osteoblasts, firefly luciferase, cherry-picked (AID 624132); type: functional;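 note: firefly luciferase luminescence from reporter carrying the Shn3 3'UTR in osteoblasts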
# [9] = molecular target: T2, Polyadenylate-binding protein 1; assay: PABP1 MLLE–PAM2 binding inhibitor potency, dose response, biochemical, fluorescence polarization, FITC-PAM2 peptide (AID 602259); type: functional; settings: read-out: IC50_Mean
# [10] = HepG2 cell cytotoxicity, dose response, cytotoxicity control for Shn3 inhibitor project, CellTiter-Glo, cherry-picked (AID 624134); type: functional, cell-based
# [11] = control 3'UTR Renilla luciferase suppression, dose response, counter-screen for Shn3 inhibitor project, cell-based, Clone20-Shn3RL, cherry-picked (AID 624133); type: functional
# [12] = Fluorescence-based cell-based high throughput dose response assay for inhibitors of the interaction of nucleotide-binding oligomerization domain containing 2 (NOD2) and the receptor-interacting serine-threonine kinase 2 (RIPK2).; type: functional; settings: Homo sapiens
# Beta Lactamase [13] = molecular target: T1, Beta Lactamase; assay: beta-lactamase reporter inhibitor potency, dose response, artefact control for NOD2-RIPK2 interaction inhibitor project, BLA reporter cells, FRET fluorescence (AID 651552); type: functional, cell-based
# HEK293 [14] = assay: Fluorescence-based counterscreen for potentiators or agonists of NPY-Y2: cell-based high-throughput dose response assay to identify inhibitors of cyclic nucleotide gated ion channel (CNGC) activity. In this assay, the parental HEK293 cell line transfected with a cyclic-nucleotide gated ion channel (CNGC)-based cAMP sensor is used to measure inhibition of isoproterenol-induced CNGC activity by test compound.; type: functional; settings: Homo sapiens
# [15] = molecular target: Neuropeptide Y receptor type 2 (Homo sapiens, UniProt P49146); assay: Fluorescence-based cell-based high-throughput dose response assay for agonists of NPY-Y2. [Related pubchem assays: 1703 (Screening assay (CNGC inhibitors).), 1359 (Screening assay (NPY-Y2 potentiators or agonists).), 1304 (Screening assay (NPY-Y1 potentiators or agonists).), 1710 (Screening assay (NPY-Y2 agonists).), 1791 (Summary AID.)]; type: functional
# [16] = molecular target: Neuropeptide Y receptor type 1 (Homo sapiens, UniProt P25929); assay: Fluorescence-based counterscreen for agonists of NPY-Y2: cell-based high-throughput dose response assay for agonists of NPY-Y1.; type: functional
# Neuropeptide Y receptor type 1, sequence (P25929 whole entry): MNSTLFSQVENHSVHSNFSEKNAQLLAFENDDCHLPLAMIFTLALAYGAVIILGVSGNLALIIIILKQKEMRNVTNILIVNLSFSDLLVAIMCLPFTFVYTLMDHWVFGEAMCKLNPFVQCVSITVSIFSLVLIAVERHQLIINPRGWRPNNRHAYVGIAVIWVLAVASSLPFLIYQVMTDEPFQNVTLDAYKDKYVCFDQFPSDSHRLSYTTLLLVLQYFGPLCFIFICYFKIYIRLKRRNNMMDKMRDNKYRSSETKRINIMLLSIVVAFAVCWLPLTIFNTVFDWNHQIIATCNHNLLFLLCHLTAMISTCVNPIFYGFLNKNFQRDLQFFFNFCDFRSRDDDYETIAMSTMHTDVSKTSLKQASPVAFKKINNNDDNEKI
# [17] = molecular target: T3, Beta-2 adrenergic receptor (Homo sapiens, UniProt P07550); assay: beta2AR agonists driving receptor internalization, dose response, cell-based, FAP fluorogen, flow cytometry, cherry pick 1 (AID 588763); type: functional
# T3 sequence (P07550 whole entry): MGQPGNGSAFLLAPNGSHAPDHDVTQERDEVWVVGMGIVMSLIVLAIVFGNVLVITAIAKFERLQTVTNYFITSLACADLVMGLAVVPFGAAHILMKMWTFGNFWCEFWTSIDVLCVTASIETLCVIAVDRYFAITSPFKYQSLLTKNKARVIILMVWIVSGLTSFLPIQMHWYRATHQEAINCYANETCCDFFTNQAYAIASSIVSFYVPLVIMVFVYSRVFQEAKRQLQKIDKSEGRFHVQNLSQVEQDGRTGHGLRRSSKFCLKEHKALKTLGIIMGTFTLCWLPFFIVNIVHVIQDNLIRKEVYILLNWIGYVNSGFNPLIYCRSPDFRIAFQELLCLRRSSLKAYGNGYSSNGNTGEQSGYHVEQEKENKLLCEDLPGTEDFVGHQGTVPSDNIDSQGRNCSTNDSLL
# [18] = molecular target: T3, Beta-2 adrenergic receptor; assay: Dose response for HTS for Beta-2AR agonists via FAP method from Powderset3.; type: functional
# [19] = molecular target: Luciferin 4-monooxygenase (Photinus pyralis, UniProt P08659); assay: firefly luciferase enzyme inhibitors, dose response, biochemical, luminescence (AID 1891)
# Luciferin 4-monooxygenase, sequence (P08659 whole entry): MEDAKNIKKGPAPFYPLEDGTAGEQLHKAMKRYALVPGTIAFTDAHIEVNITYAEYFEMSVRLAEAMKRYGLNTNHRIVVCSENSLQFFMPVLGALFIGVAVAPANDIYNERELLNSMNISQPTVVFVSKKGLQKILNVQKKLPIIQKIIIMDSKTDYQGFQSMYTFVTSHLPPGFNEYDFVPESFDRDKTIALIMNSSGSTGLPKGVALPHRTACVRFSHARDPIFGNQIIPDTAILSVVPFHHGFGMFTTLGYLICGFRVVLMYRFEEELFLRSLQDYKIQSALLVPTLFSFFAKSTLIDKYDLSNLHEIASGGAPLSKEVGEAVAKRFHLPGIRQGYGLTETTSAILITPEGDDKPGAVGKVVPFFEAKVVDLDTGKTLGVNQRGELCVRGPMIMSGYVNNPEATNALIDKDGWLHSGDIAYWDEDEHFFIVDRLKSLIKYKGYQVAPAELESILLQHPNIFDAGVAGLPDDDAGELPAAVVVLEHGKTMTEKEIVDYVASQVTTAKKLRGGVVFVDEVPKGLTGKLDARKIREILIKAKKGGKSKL
# [20] = Luminescence Cell-Based Dose Confirmation HTS to Identify Inhibitors of Platelet Dense Granule Release. [Related pubchem assays: 1663 (Primary HTS), 1678 (Summary of Project)]; type: functional
# [21] = inhibitors of SFLLRN-triggered platelet P-selectin exposure, dose response, cell-based, fluorescence, flow cytometry, human platelets (AID 2511); type: functional
# [22] = blockers of SFLLRN-triggered platelet ATP secretion – cell-based, human platelets, luminescence, dry powder, dose response (AID 493100); type: functional
# [23] = Luminescence Cell-Based Dose Response Follow up to Identify Inhibitors of Platelet Dense Granule Release. [Related pubchem assays (depositor defined):AID1663, AID1678, AID2398]; type: functional
# [24] = NIH-3T3 fibroblast cytotoxicity, dose response, cytotoxicity control, cell-based, fluorescence, Alamar Blue, secondary assay (AID 2327); type: functional;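 note: NIH-3T3 mouse fibroblasts cultured with fluconazole at 8 µg/mL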
# [25] = C. albicans growth with fluconazole, confirmation, fluorescence, retest (AID 2467); type: functional, cell-based
# [26] = molecular target: Serine/threonine-protein phosphatase (Candida dubliniensis (strain CD36 / CBS 7987 / NCPF 3949 / NRRLY-17841) (Yeast), UniProt B9W6M3); assay: calcineurin pathway inhibitors in yeast reporter, dose response, S. cerevisiae, CDRE-lacZ, luminescence, secondary (AID 2388); type: functional, cell-based;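 note: yeast reporter cells carrying a calcineurin-responsive lacZ construct stimulated with calcium chloride; luminescent beta-galactosidase reporter signal in whole cells rather than isolated phosphatase activity; potency for inhibition where a drop in reporter signal means calcineurin blockade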
# Serine/threonine-protein phosphatase, sequence (B9W6M3 whole entry): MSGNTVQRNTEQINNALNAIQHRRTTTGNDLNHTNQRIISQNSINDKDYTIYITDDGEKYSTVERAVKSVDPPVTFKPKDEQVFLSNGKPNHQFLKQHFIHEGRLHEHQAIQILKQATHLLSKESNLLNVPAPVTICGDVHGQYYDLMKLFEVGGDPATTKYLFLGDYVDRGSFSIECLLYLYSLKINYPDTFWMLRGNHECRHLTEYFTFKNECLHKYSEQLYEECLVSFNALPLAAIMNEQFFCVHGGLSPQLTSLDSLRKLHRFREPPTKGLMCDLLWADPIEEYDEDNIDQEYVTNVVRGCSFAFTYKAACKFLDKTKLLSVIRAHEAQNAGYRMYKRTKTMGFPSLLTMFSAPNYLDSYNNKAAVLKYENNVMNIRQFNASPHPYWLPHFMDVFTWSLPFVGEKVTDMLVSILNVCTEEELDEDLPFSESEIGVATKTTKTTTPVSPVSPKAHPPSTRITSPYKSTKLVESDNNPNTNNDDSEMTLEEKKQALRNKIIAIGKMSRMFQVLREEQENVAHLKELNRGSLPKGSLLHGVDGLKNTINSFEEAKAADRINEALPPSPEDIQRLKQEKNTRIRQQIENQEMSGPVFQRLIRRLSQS
# [27] = molecular target: ATP-dependent molecular chaperone HSP82 (Candida albicans (strain WO-1) (Yeast), UniProt C4YTQ8); assay: loss of DOC-induced GRE-beta-galactosidase reporter signal, dose response, Hsp90 inhibitor project, S. cerevisiae, luminescence (AID 2400); type: functional, cell-based;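 note: beta-galactosidase luminescence from glucocorticoid response element reporter as proxy for Hsp90 function; inhibitor potency where signal loss means Hsp90 inhibition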
# ATP-dependent molecular chaperone HSP82, sequence (C4YTQ8 whole entry): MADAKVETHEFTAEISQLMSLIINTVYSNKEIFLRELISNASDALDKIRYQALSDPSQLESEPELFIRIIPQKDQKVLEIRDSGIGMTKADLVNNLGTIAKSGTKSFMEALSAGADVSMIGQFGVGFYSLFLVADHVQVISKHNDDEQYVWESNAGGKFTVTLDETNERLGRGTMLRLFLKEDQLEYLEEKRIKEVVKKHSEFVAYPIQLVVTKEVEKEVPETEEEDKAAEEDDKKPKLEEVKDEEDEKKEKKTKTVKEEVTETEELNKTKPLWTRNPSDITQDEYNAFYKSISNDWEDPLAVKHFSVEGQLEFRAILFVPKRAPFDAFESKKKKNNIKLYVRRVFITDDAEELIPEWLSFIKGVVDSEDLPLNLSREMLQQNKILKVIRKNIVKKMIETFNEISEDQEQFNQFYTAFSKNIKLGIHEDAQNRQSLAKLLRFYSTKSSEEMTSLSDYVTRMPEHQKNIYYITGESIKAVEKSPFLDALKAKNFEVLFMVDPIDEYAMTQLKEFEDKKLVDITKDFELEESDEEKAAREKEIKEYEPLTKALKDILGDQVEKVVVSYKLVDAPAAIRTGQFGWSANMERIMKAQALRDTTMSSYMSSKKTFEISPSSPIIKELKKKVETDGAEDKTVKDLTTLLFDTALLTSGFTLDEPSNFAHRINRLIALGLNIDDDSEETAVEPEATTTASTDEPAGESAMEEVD
# Candida albicans [28] = assay: growth inhibition of resistant C. albicans, dose response, CaCi-8 strain, fluconazole, dry powder, set 4 (AID 488950); type: functional, organism-based
# Candida albicans [29] = assay: C. albicans growth inhibition with fluconazole, dose response, antifungal resistance reversal project, CaCi-2 strain, Alamar Blue, dry powder, set 2 (AID 488930); type: functional, organism-based
# Candida albicans [30] = assay: fluconazole resistance reversal in C. albicans, dose response, CaCi-2 strain, Alamar Blue, dry powder, set 4 (AID 488943); type: functional, organism-based
# Candida albicans [31] = assay: Candida albicans growth inhibition, compound alone, dose response, counter-screen for antifungal drug resistance project, CaCi-2 strain, Alamar Blue, dry powder, set 2 (AID 488893); type: functional, organism-based
# Candida albicans [32] = assay: growth inhibition of azole-resistant C. albicans, dose response, CaCi-8 strain, Alamar Blue, dry powder, set 2 (AID 488909); type: functional, organism-based
# BJ [33] = assay: cytotoxicity toward BJ-TERT fibroblasts, dose response, cell-based, RAS-independent, luminescence (AID 1933); type: functional; settings: Homo sapiens
# BJ [34] = assay: cells; type: functional, cell-based; settings: Homo sapiens
# BJ [35] = assay: cytotoxicity toward BJ-TERT-LT-ST fibroblasts, dose response, cell-based, RAS-independent, luminescence (AID 1935); type: functional; settings: Homo sapiens;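 note: BJ fibroblasts immortalized with TERT plus LT and ST oncogenes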
# [36] = cytotoxicity toward DRD oncogenic fibroblasts, dose response, cell-based, non-viral oncogenic, luminescence (AID 1934); type: functional; settings: Homo sapiens
# Jurkat [37] = assay: antigen receptor-induced NF-kB inhibitors, dose response, Jurkat, luciferase reporter, luminescence, B- and T-cell (AID 489004); type: functional, cell-based; settings: Homo sapiens;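 note: NF-kB luciferase reporter Jurkat cells stimulated with PMA plus ionomycin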
# [38] = cytotoxicity in HEK-293T NF-kB-Luc cells, dose response, cytotoxicity control for B/T-cell NF-kB inhibitor project, cell-based, uHTS hits (AID 489019); type: functional;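 note: IC50 reflects cytotoxicity as loss of cell viability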
# HEK293 [39] = assay: cytotoxicity in HEK293T NF-kB-Luc cells, SAR follow-up, cytotoxicity control for NF-kB activator project, cell-based, resazurin fluorescence (AID 493251); type: functional; settings: Homo sapiens
# Jurkat [40] = assay: SAR Analysis of small molecule inhibitors of T-cell specific antigen receptor-induced NF-kB activation in a Jurkat cell line using a luminescence assay - Set 2. [Related pubchem assays (depositor defined):AID435003, AID435012, AID465]; type: functional, cell-based; settings: Homo sapiens
# HEK293 [41] = assay: SAR Analysis of small molecule inhibitors of T-cell specific antigen receptor-induced NF-kB activation in a HEK-293T cell line using a luminescence assay - Set 2. [Related pubchem assays (depositor defined):AID435003, AID435012, AID489026]; type: functional, cell-based; settings: Homo sapiens
# [42] = molecular target: Glucose-6-phosphate 1-dehydrogenase (Homo sapiens, UniProt P11413); assay: human G6PD enzyme inhibitors, dose response, selectivity assay for P. falciparum G6PD inhibitor project, biochemical, fluorescence (AID 504792); type: functional
# Glucose-6-phosphate 1-dehydrogenase, sequence (P11413 whole entry): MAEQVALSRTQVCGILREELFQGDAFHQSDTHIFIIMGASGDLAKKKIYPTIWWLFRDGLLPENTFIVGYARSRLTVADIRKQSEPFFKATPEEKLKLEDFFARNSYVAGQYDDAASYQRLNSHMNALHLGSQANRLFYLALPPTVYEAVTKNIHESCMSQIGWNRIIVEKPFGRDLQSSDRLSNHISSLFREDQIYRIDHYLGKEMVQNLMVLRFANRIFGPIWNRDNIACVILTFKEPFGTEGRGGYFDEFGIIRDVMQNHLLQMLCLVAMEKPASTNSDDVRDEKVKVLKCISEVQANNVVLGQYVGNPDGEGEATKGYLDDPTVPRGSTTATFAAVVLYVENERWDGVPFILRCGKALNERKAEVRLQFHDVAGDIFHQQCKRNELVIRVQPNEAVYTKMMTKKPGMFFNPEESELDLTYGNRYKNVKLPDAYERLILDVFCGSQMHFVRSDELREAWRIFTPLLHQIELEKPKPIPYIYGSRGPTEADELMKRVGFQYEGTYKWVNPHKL
# A-375 [43] = assay: MITF: Counter assay: A375 proliferation Measured in Cell-Based System Using Plate Reader - 2084-03_Inhibitor_Dose_DryPowder_Activity. [Related pubchem assays (depositor defined):AID488944]; type: functional; settings: Homo sapiens
# A-375 [44] = assay: A375 melanoma cell viability reduction, dose response, counter-screen for MITF modulator project, cherry-pick samples, set 2 (AID 540335); type: functional, cell-based; settings: Homo sapiens
# [45] = inhibitors of PGC1a acetylation in cells, dose response, cell-based, cherry-picked samples (AID 720514); type: functional;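 note: potency may reflect raised or lowered acetylation signal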
# [46] = HeLa 2N DNA content increase, dose response, cell-based, IC50 (AID 1117349); type: functional
# [47] = HeLa 4N DNA content increase, dose response, cell-based, IC50 (AID 1117351); type: functional
structure (smiles),measurement,setting,value
O=S(=O)(c1ccccc1)c1cnc(-c2cccnc2)nc1-c1ccc(Cl)cc1Cl,AC50,Escherichia coli [1],150 µM (active)
same,AC50,Escherichia coli [2],224 µM (active)
Cc1ccc2cc(C(c3nnnn3Cc3ccccc3)N3CCc4ccccc43)c(O)nc2c1 (stereo not given),EC50,[3],> 92.5 µM (inactive)
same,EC50,Mu-type opioid receptor,> 92.5 µM (inactive)
same,EC50,[4],> 92.5 µM (inactive)
O=C(c1ccccc1)c1ccccc1N1C(=O)C=CC1=O,IC50,Beta-galactosidase,> 66.6 µM (inactive)
same,IC50,CHO,2.78 µM (active)
same,AC50,[5],2.21 µM (active)
same,IC50,Beta Lactamase [6],15.3 µM (inactive)
same,IC50,[7],> 66 µM (inactive)
same,AC50,[8],16.7 µM (active)
same,IC50,[9],> 66 µM (inactive)
same,AC50,[10],24.6 µM (active)
same,AC50,[11],12.5 µM (active)
same,IC50,[12],1.99 µM (active)
same,IC50,Beta Lactamase [13],15.5 µM (inactive)
Clc1ccc(OCc2nnc(SCc3nc4ccccc4[nH]3)n2Cc2ccco2)cc1,EC50,HEK293 [14],> 35.4 µM (not active)
same,EC50,[15],> 35.4 µM (not active)
same,EC50,[16],> 35.4 µM (not active)
same,EC50,[17],0.205 µM (active)
same,EC50,[18],0.0069 µM (active)
Cc1ccc(-n2c(N)c(C#N)c(-c3ccc(Cl)cc3)c(C#N)c2=O)cc1,EC50,[19],> 112 µM (not active)
same,EC50,[20],4.94 µM (active)
same,EC50,[21],< 3 µM (active)
same,AC50,[22],14.3 µM (active)
same,EC50,[23],0.623 µM (active)
Oc1nc(S)nnc1Cc1ccc(Cl)c(Cl)c1,EC50,[24],> 160 µM (inactive)
same,EC50,[25],0.241 µM (active)
same,EC50,[26],> 180 µM (inactive)
same,EC50,[27],> 160 µM (inactive)
O=C(c1ccc(F)cc1)N1CCN(c2ccnc3cc(Cl)ccc23)CC1,AC50,Candida albicans [28],1.19 µM (active)
same,AC50,Candida albicans [29],0.57 µM (active)
same,AC50,Candida albicans [30],1.33 µM (active)
same,AC50,Candida albicans [31],> 260 µM (inactive)
same,AC50,Candida albicans [32],3.2 µM (active)
COc1cc2nc(NC(=O)c3ccccc3)sc(=O)c2cc1OC,EC50,BJ [33],20.1 µM (active)
same,EC50,BJ [34],> 150 µM (not active)
same,EC50,BJ [35],> 150 µM (inconclusive)
same,EC50,[36],79 µM (active)
same,IC50,Jurkat [37],0.76 µM (active)
same,IC50,[38],> 80 µM (inactive)
same,IC50,HEK293 [39],> 80 µM (inactive)
same,IC50,Jurkat [40],0.56 µM (active)
same,IC50,HEK293 [41],65.6 µM (inactive)
CCCCC1C(=O)N(c2ccccc2)N(c2ccc(O)cc2)C1=O (stereo not given) [OXYPHENBUTAZONE ANHYDROUS],IC50,[42],> 80 µM (inactive)
same,AC50,A-375 [43],> 35 µM (active)
same,AC50,A-375 [44],> 35 µM (active)
same,AC50,[45],9.85 µM (active)
same,IC50,[46],> 10 µM (inactive)
same,IC50,[47],> 10 µM (inactive)
